Patent US10154991B2, “Anesthetic compounds and related methods of use” (priority 2012, dated 2018)
Values joined by “and” are separate entries in the source; they are usually repeats but may differ in a detail not shown here. Equal entries are not always repeated.

How the values were obtained:
[1] = system: GABAA receptor channel; test: radioligand binding to the GABAA receptor channel; settings: 10 μM
[2] = system: rats; test: Anesthesia (LORR) in rats by IV bolus and continuous infusion; assay type: in vivo, rat
Procedure: Rats were monitored for anesthesia as assessed by loss of righting reflex (LORR) and the subsequent time to recovery from LORR. Bolus doses of 1.0 mg/kg and greater induced dose-dependent anesthesia. The minimum effective bolus anesthetic dose in rats was approximately 1 mg/kg based on LORR observations. Time to recovery from LORR was dose-dependent.
Cyclopropyl-MOC-metomidate anesthesia in rats by continuous infusion without a bolus induction dose was examined in this study. An infusion of […] induced anesthesia after approximately 3 minutes as measured by LORR. Recovery of righting reflex took approximately 4 minutes following infusion discontinuation whether the infusion was conducted for 5 or 120 minutes.
Cyclopropyl-MOC-metomidate continuous infusion studies were conducted to determine the minimum effective infusion dose required to induce anesthesia. […] When stable anesthesia was observed after 30 minutes of infusion, the infusion rate was reduced to 0.8 mg/kg/min and then to 0.6 mg/kg/min and 0.4 mg/kg/min at 30-minute intervals. Anesthesia and LORR was maintained in all rats at 0.6 mg/kg/min. […] In one rat, the infusion at 0.4 mg/kg/min was discontinued after 7 minutes due to inadequate the anesthesia. The other two rats received the full 30-minute infusion at […] with no further change. Rats recovered from LORR and resumed normal behavior within 2-6 minutes of stopping the infusion. Based on these observations, the minimum effective infusion dose rate required to maintain anesthesia was determined to be approximately 0.5 mg/kg/min. An independent assessment of “minimal immobilizing infusion rate” of cyclopropyl-MOC-metomidate in rats yielded a value of 0.89±0.18 mg/kg/min.

[3] = in vivo; settings: rat
[4] = system: beagle dogs
Procedure: A pilot study was conducted in dogs to assess anesthesia induced by cyclopropyl-MOC-metomidate continuous infusion without a bolus induction dosing. Two dogs received cyclopropyl-MOC-metomidate as a 1 mg/kg/min IV infusion without prior bolus administration.
Anesthesia induction was determined using the methods described above.
Etomidate was administered to dogs at IV bolus doses ranging from 0.25 to 2 mg/kg. Anesthesia in the dogs was measured as described above. […] The bolus dose of 2 mg/kg was adopted to induce anesthesia prior to subsequent continuous infusions.
Propofol was administered to dogs as an IV bolus dose of 5 mg/kg to induce anesthesia followed by a continuous infusion at 0.4 mg/kg/min.

[5] = target: T1, human α1(L264T), β2 and γ2L subunits of the GABAA receptor (Homo sapiens, UniProt P14867+P47870, L291T); test: GABAA receptor current in Xenopus oocytes, 2-electrode voltage clamp; assay type: cell-based
T1 construct: expressed in transfected cells; host or cells: Xenopus oocytes
Procedure: Cyclopropyl-MOC-metomidate induces anesthesia by acting as a positive allosteric modulator of the γ-aminobutyric acid (GABA) type A (GABAA) receptor. Cyclopropyl-MOC-metomidate and its principle metabolite, CPM-acid, were evaluated for their ability to potentiate activation of GABAA receptor current in Xenopus oocytes expressing the human α1(L264T), β2 and γ2L subunits of the GABAA receptor using established methods (Ge et al., 2011). The […] mutant was used rather than wild-type GABAA receptor because it is directly activated by anesthetics, allowing a simpler assessment of the drug potency without the need for concomitant activation by GABA. Anesthetic potency on this mutated GABAA receptor is similar to that on wild-type receptors. Currents were recorded using conventional 2-electrode voltage clamp technique at a holding potential of −50 mV. Oocytes were placed in a 0.04-mL recording chamber and constantly perfused at a rate of 4-6 mL/min. The current response to ABP-700 or CPM-acid was normalized to that produced by 100 μM GABA in the same oocyte and data presented as mean±SD from 3-6 oocytes.

[6] = In vitro metabolic half-life of hypnotics in rat blood; assay type: in vitro ADME; settings: rat
Procedure: On the day of study, whole blood was drawn from the femoral venous catheters of 3 Sprague-Dawley rats (1-2 ml/rat), immediately anticoagulated with heparin (38 U), pooled, and stored on ice. A 1 ml aliquot of blood was warmed at 37° C. for 5 minutes and hypnotic (from a 40 mM in dimethyl sulfoxide stock solution) was added to a final concentration of 100 μM. After the desired incubation time, a 150 μl sample was removed and the metabolic reaction was quenched with 150 μl acetonitrile (Sigma-Aldrich, St. Louis, Mo.). Zero time point samples were prepared by adding 150 μl acetonitrile to blood prior to adding hypnotic (from a 4 mM in dimethyl sulfoxide stock solution). The quenched samples were centrifuged and the resultant supernatant separated and stored at −20° C. until analyzed. Hypnotic concentrations in thawed samples were determined by high performance liquid chromatography using a Varian Prostar system with a 4.6×250 mm Proto 300 C18 column (Nest Group, Southborough, Mass.) with the UV detector set at 240 nm.

[7] = system: adrenal cortisol production
Procedure: Dexamethasone (0.01 mg/kg) was administered two hours before the first administration of ACTH and re-administered every 2 hours to maintain suppression. Dexamethasone pretreatment suppresses the hypothalamo-hypophyseal axis to prevent endogenous ACTH release and subsequent adrenocortical steroid secretion. […] Synthetic ACTH (Synacthen, 250 μg) was then administered at times after test substance administration to evaluate the effects of the test substance on the release of the adrenal steroid, cortisol.
All study methods described for Study 1 were repeated, except the ACTH administration at the end of infusion was omitted.

[8] = Pharmacokinetics in rats, IV bolus and bolus plus infusion
[9] = dogs, 4 mg/kg bolus or bolus plus 0.5 mg/kg/min for 30 or 120 minutes

T1 sequence (P14867 28-456 L291T): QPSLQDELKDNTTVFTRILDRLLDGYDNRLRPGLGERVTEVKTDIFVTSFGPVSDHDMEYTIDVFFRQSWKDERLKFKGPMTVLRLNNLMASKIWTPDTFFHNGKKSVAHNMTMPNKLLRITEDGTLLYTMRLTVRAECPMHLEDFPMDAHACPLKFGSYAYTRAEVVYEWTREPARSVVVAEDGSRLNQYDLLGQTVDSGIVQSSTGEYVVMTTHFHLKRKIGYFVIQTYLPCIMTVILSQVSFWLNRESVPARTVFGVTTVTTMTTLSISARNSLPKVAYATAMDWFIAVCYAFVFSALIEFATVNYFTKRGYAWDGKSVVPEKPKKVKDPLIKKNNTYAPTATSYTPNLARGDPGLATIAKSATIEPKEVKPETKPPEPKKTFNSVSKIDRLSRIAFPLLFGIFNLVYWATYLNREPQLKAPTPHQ
T1 sequence (P47870 25-512 limits assumed): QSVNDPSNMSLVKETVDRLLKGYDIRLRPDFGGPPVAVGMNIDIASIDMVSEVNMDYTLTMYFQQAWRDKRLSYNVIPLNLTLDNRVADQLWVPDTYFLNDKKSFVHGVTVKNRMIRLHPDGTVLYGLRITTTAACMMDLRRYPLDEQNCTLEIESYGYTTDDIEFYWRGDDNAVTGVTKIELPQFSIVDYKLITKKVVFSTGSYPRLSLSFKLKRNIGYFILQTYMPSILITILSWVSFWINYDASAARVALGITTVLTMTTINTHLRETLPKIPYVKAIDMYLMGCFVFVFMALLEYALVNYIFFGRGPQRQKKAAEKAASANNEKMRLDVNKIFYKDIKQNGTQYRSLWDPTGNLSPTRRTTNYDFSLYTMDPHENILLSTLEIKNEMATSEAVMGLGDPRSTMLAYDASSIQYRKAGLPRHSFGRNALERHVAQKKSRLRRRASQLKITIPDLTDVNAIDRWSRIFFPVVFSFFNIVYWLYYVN
T1 sequence (P18507 40-475 partner): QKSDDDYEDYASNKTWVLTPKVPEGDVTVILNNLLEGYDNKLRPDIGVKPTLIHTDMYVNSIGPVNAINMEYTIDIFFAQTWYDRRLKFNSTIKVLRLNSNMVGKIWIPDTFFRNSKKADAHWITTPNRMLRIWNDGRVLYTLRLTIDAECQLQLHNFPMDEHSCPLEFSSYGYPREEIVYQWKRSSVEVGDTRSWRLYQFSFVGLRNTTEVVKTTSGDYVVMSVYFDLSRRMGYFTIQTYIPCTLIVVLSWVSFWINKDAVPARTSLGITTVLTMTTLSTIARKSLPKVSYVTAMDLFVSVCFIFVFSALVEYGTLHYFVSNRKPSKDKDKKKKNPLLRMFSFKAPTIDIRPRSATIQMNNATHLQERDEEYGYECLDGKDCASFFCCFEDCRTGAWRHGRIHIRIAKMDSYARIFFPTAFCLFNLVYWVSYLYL

Q: With `COC(=O)C1(OC(=O)c2cncn2[C@H](C)c2ccccc2)CC1` [Cyclopropyl- methoxycarbonyl metomidate, cyclopropyl-methoxycarbonyl metomidate] as the compound, how does the “effect on binding of [3H]-flunitrazepam” value [1] read?
A: no effect

Q: What about the “effect on binding of [3H]-muscimol” value [1] of the same compound?
A: no effect

Q: What about the “minimum effective infusion dose rate to maintain anesthesia” value [2] of the same compound?
A: approximately 0.5 mg/kg/min

Q: What about the “recovery from LORR and normal behavior after stopping the infusion” value ([2]; 4 mg/kg bolus then 1 to 0.4 mg/kg/min step-down infusion) of the same compound?
A: 2 to 6 min

Q: And the “minimum effective bolus anesthetic dose” value ([2]; IV bolus, LORR)?
A: approximately 1 mg/kg

Q: What about the “duration of anesthesia and LORR” value ([2]; bolus dose of 4 mg/kg) of the same compound?
A: 3 to 8 min

Q: And the “minimal immobilizing infusion rate” value ([2]; independent assessment)?
A: 0.89 ± 0.18 mg/kg/min

Q: What about the “recovery of righting reflex after infusion discontinuation” value ([2]; infusion for 5 or 120 minutes) of the same compound?
A: approximately 4 minutes

Q: And the “time to induction of anesthesia (LORR)” value ([2]; infusion of 4 mg/kg without bolus)?
A: approximately 3 minutes

Q: What about the concentration at 24 h ([3]; both, iv) of the same compound?
A: < 0.1 ng/mL

Q: What about the half-life ([3]; both, iv) of the same compound?
A: ~10 min

Q: And the half-life [3]?
A: ~20 min

Q: And the “minimum effective continuous infusion dose rate (infusion MED)” value ([4]; dogs)?
A: approximately 0.5 mg/kg/min

Q: What about the emergence from anesthesia [4, 9] of the same compound?
A: approximately 5 minutes

Q: And the “recovery of apparently normal behavior” value [4, 9]?
A: 10 to 12 min

Q: What about the “minimally effective anesthetic dose (MED)” value ([4]; dogs, IV bolus) of the same compound?
A: approximately 1 mg/kg

Q: And the duration of anesthesia ([4]; dogs, bolus dose of 3 or 4 mg/kg)?
A: 3 to 6 min

Q: And the “context dependence of recovery from anesthesia” value ([4]; dogs, bolus vs 30- or 120-minute infusion)?
A: context-independent

Q: And the “anesthesia onset after initiation of infusion” value ([4]; two dogs, 1 mg/kg/min IV infusion without bolus)?
A: 2.5 to 4.0 min

Q: And the EC50 [5]?
A: 5.8 ± 1.1 µM

Q: And the “concentration having minimal effects on current” value [5]?
A: ~0.3 µM

Q: What about the half-life at 100 μM ([6]; Sprague-Dawley, pooled heparinised whole blood, rat blood, 37° C., 100 μM, read-out: Blood Half-Life (95% CI)) of the same compound?
A: 0.57 min

Q: And the “in vitro metabolic half-life compared with methoxycarbonyl etomidate and etomidate” value [6]?
A: intermediate between those of methoxycarbonyl etomidate and etomidate

Q: What about the “ACTH-induced plasma cortisol response” value ([7]; Study 1, dogs, after 120-minute infusion) of the same compound?
A: cortisol response to the first ACTH stimulus was inhibited, but the response to the second and third ACTH stimuli at 90 and 180 minute post-infusion were robust

Q: What about the “return of normal adrenal responsiveness after cessation of infusion” value ([7]; dogs) of the same compound?
A: 1.5 to 3 h

Q: What about the “first-phase decline of levels” value ([8]; IV bolus 4-16 mg/kg, first 5 minutes) of the same compound?
A: > 10 fold

Q: And the “venous blood concentration when sedated/anesthetized” value ([8]; bolus and continuous infusion, listed as cyclopropyl-MOC-metomidate)?
A: > 250 ng/mL and > 0.8 μM

Q: And the “decline of levels after discontinuation of infusion” value ([8]; first 30 minutes after 60-minute infusion)?
A: ~50 fold
